Laboratory results as given in patent US12492173B2, “Herbicidal substituted N-tetrazolyl aryl carboxamides” (Bayer Aktiengesellschaft, priority 2019, dated 2025).

Assays:
Format in all cases: in vivo
Abutilon theophrasti = test: Pre-emergence herbicidal action, ABUTH; settings: dosage 320 g/ha, scored visually after 3 weeks vs untreated controls (100% = plants have died)
Method in brief: (§1)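 Pre-emergence, sandy loam soil; WP/EC formulation applied to covering soil surface, 600–800 l/ha water + 0.2% wetter; greenhouse, 3 wk; visual % damage vs untreated (0–100%).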

Echinochloa crus-galli = test: Post-emergence herbicidal action, ECHCG; set-up: key: % herbicidal action vs untreated; 100 = plants died, 0 = like control
Method in brief: (§2)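 One-leaf-stage weeds, raised from seed in greenhouse sandy loam, received a single foliar spray of compound as wettable powder or emulsion concentrate with 0.2% wetting agent added. Growth continued under optimal conditions for about 3 weeks before percent damage was scored by eye against controls.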

Lolium multiflorum [1] = test: Pre-emergence herbicidal action, LOLMU; settings: dosage 320 g/ha, scored visually after 3 weeks vs untreated controls (100% = plants have died)
Excerpt: 1. Pre-Emergence Herbicidal Action Against Harmful Plants Seeds of monocotyledonous and dicotyledonous weed plants and crop plants are laid out in sandy loam soil in wood-fiber pots and covered with soil. The compounds of the invention, formulated in the form of wettable powders (WP) or as emulsion concentrates (EC), are then applied to the surface of the covering soil in the form of an aqueous suspension or emulsion at a water application rate equating to 600 to 800 l/ha, with addition of 0.2% wetting agent. After the treatment, the pots are placed in a greenhouse and kept under good growth conditions for the trial plants. The damage to the test plants is scored visually after a test period of 3 weeks by comparison with untreated controls (herbicidal activity in percent (%): 100% activity=the plants have died, 0% activity=like control plants). […] The tables below illustrate, in an exemplary manner, the […] herbicidal action of the compounds according to the invention, the herbicidal activity being stated in percent. [table] In the experiments that follow, herbicidal action of numerous inventive compounds and the known compounds that are structurally closest from D1 (WO 2012/028579 A1) and D2 (WO 2018/202535 A1) were compared under the above-specified conditions by the pre-emergence and post-emergence method. The example numbers given in the tables relate to the compounds disclosed in the respective documents. In addition to the compounds disclosed in D1 and D2, the following compounds V-1 to V-14 that are encompassed by D1 or D2 but are not compounds specified therein were used in the comparative experiments: • V-1: 2-(methylsulfanyl)-3-(methylsulfinyl)-N-(1-methyl-1H-tetrazol-5-yl)-4-(trifluoromethyl)benzamide • V-2: 2-(methylsulfanyl)-3-(methylsulfonyl)-N-(1-methyl-1H-tetrazol-5-yl)-4-(trifluoromethyl)benzamide • V-3: 2,3-bis(ethylsulfanyl)-N-(1-methyl-1H-tetrazol-5-yl)-4-(trifluoromethyl)benzamide • V-4: 2-chloro-3-(ethylsulfanyl)-N-(1-methyl-1H-tetrazol-5-yl)-4-(trifluoromethyl)benzamide • V-5: 2-chloro-4-iodo-3-(methylsulfanyl)-N-(1-methyl-1H-tetrazol-5-yl)benzamide • V-6: 2-chloro-4-iodo-3-(methylsulfinyl)-N-(1-methyl-1H-tetrazol-5-yl)benzamide • V-7: 2-chloro-4-iodo-3-(methylsulfonyl)-N-(1-methyl-1H-tetrazol-5-yl)benzamide • V-8: 2-bromo-3-(methylsulfanyl)-N-(1-methyl-1H-tetrazol-5-yl)-4-(trifluoromethyl)benzamide • V-9: 2-bromo-3-(methylsulfinyl)-N-(1-methyl-1H-tetrazol-5-yl)-4-(trifluoromethyl)benzamide • V-10: 2-bromo-3-(methylsulfonyl)-N-(1-methyl-1H-tetrazol-5-yl)-4-(trifluoromethyl)benzamide • V-11: 2-bromo-3-(ethylsulfanyl)-N-(1-methyl-1H-tetrazol-5-yl)-4-(trifluoromethyl)benzamide • V-12: 2-bromo-3-(ethylsulfinyl)-N-(1-methyl-1H-tetrazol-5-yl)-4-(trifluoromethyl)benzamide • V-13: 2-bromo-3-(ethylsulfonyl)-N-(1-methyl-1-1H-tetrazol-5-yl)-4-(trifluoromethyl)benzamide • V-14: 2-cyclopropyl-3-(ethylsulfanyl)-N-(1-methyl-1H-tetrazol-5-yl)-4-(trifluoromethyl)benzamide Herbicidal Pre-Emergence Action: […]

Matricaria inodora = test: Post-emergence herbicidal action, MATIN; set-up: key: % herbicidal action vs untreated; 100 = plants died, 0 = like control
Method in brief: as §2

Cyperus esculentus = test: Post-emergence herbicidal action, CYPES; set-up: key: % herbicidal action vs untreated; 100 = plants died, 0 = like control
Method in brief: as §2

Pharbitis purpurea = test: Pre-emergence herbicidal action, PHBPU; settings: dosage 320 g/ha, scored visually after 3 weeks vs untreated controls (100% = plants have died)
Method in brief: as §1

Lolium multiflorum [2] = test: Post-emergence herbicidal action, LOLMU; set-up: key: % herbicidal action: 100 = plants died, 0 = like control; settings: post-emergence, dosage 80 g/ha
Experimental: [table] 2. Post-Emergence Herbicidal Action Against Harmful Plants Seeds of monocotyledonous and dicotyledonous weed and crop plants are laid out in sandy loam soil in wood-fiber pots, covered with soil and cultivated in a greenhouse under good growth conditions. 2 to 3 weeks after sowing, the test plants are treated at the one-leaf stage. The compounds of the invention, formulated in the form of wettable powders (WP) or as emulsion concentrates (EC), are then sprayed onto the green parts of the plants in the form of an aqueous suspension or emulsion at a water application rate equating to 600 to 800 l/ha, with addition of 0.2% wetting agent. After the test plants have been left to stand in the greenhouse under optimal growth conditions for about 3 weeks, the action of the preparations is assessed visually in comparison to untreated controls (herbicidal action in percent (%): 100% activity=the plants have died, 0% activity=like control plants). […] The tables below illustrate, in an exemplary manner, the post-emergence herbicidal action of the compounds according to the invention, the herbicidal activity being stated in percent. In the experiments that follow, herbicidal action of numerous inventive compounds and the known compounds that are structurally closest from D1 (WO 2012/028579 A1) and D2 (WO 2018/202535 A1) were compared under the above-specified conditions by the pre-emergence and post-emergence method. The example numbers given in the tables relate to the compounds disclosed in the respective documents. In addition to the compounds disclosed in D1 and D2, the following compounds V-1 to V-14 that are encompassed by D1 or D2 but are not compounds specified therein were used in the comparative experiments: • V-1: 2-(methylsulfanyl)-3-(methylsulfinyl)-N-(1-methyl-1H-tetrazol-5-yl)-4-(trifluoromethyl)benzamide • V-2: 2-(methylsulfanyl)-3-(methylsulfonyl)-N-(1-methyl-1H-tetrazol-5-yl)-4-(trifluoromethyl)benzamide • V-3: 2,3-bis(ethylsulfanyl)-N-(1-methyl-1H-tetrazol-5-yl)-4-(trifluoromethyl)benzamide • V-4: 2-chloro-3-(ethylsulfanyl)-N-(1-methyl-1H-tetrazol-5-yl)-4-(trifluoromethyl)benzamide • V-5: 2-chloro-4-iodo-3-(methylsulfanyl)-N-(1-methyl-1H-tetrazol-5-yl)benzamide • V-6: 2-chloro-4-iodo-3-(methylsulfinyl)-N-(1-methyl-1H-tetrazol-5-yl)benzamide • V-7: 2-chloro-4-iodo-3-(methylsulfonyl)-N-(1-methyl-1H-tetrazol-5-yl)benzamide • V-8: 2-bromo-3-(methylsulfanyl)-N-(1-methyl-1H-tetrazol-5-yl)-4-(trifluoromethyl)benzamide • V-9: 2-bromo-3-(methylsulfinyl)-N-(1-methyl-1H-tetrazol-5-yl)-4-(trifluoromethyl)benzamide • V-10: 2-bromo-3-(methylsulfonyl)-N-(1-methyl-1H-tetrazol-5-yl)-4-(trifluoromethyl)benzamide • V-11: 2-bromo-3-(ethylsulfanyl)-N-(1-methyl-1H-tetrazol-5-yl)-4-(trifluoromethyl)benzamide • V-12: 2-bromo-3-(ethylsulfinyl)-N-(1-methyl-1H-tetrazol-5-yl)-4-(trifluoromethyl)benzamide • V-13: 2-bromo-3-(ethylsulfonyl)-N-(1-methyl-1-1H-tetrazol-5-yl)-4-(trifluoromethyl)benzamide • V-14: 2-cyclopropyl-3-(ethylsulfanyl)-N-(1-methyl-1H-tetrazol-5-yl)-4-(trifluoromethyl)benzamide Herbicidal Pre-Emergence Action: […]

SMILES	herbicidal activity ABUTH (Abutilon theophrasti)	herbicidal action ECHCG (Echinochloa crus-galli; Dosage 80 g/ha)	herbicidal activity LOLMU (Lolium multiflorum [1])	herbicidal action MATIN (Matricaria inodora; Dosage 80 g/ha)	herbicidal action CYPES (Cyperus esculentus; Dosage 80 g/ha)	herbicidal activity PHBPU (Pharbitis purpurea)	herbicidal action ECHCG (Echinochloa crus-galli; post-emergence, dosage 80 g/ha)	herbicidal action CYPES (Cyperus esculentus; post-emergence, dosage 80 g/ha)	herbicidal action MATIN (Matricaria inodora; post-emergence, dosage 80 g/ha)	herbicidal action LOLMU (Lolium multiflorum [2])	Herbicidal action against ECHCG (Echinochloa crus-galli; comparative experiment, post-emergence, 5 g of a.i./ha)
CCCn1nnnc1NC(=O)c1ccc(C(F)(F)F)c(CSCC)c1Cl [Example 3-299]	100%	90	90%	100							
CCCn1nnnc1NC(=O)c1ccc(C(F)(F)F)c(CSC)c1Cl [Example 3-296]	100%	100	80%	100							
CCCn1nnnc1NC(=O)c1ccc(C(F)F)c(C[S+]([O-])CC)c1Cl (centres unmarked) [Example 3-324]	100%	100			90	90%					
Cn1nnnc1NC(=O)c1ccc(Cl)c(CS(C)(=O)=O)c1Cl [Example 1-561]	100%	100	80%	100	80						
CCSCc1c(C(F)(F)F)ccc(C(=O)Nc2nnnn2C)c1C [Example 1-86]	100%					80%	80%	80%	100%		
CCn1nnnc1NC(=O)c1ccc(C(F)(F)F)c(CSC)c1Br [Example 2-380]	100%					80%	90%		100%	80%	
CSCc1c(C(F)(F)F)ccc(C(=O)Nc2nnnn2C)c1SC [Example 1-161]	100%	90	90%	100	80						
CSCc1c(C(F)(F)F)ccc(C(=O)Nc2nnnn2C)c1Br [Example 1-380]	100%					80%	90%		90%	100%	
CCCn1nnnc1NC(=O)c1ccc(C(F)(F)F)c(CSCC)c1Br [Example 3-383]	100%	90	80%	100							
Cc1c(C(=O)Nc2nnnn2C)ccc(C(F)F)c1CS(C)(=O)=O [Example 1-109]	100%	100		100	80	80%					
CCn1nnnc1NC(=O)c1ccc(C(F)(F)F)c(CS(C)(=O)=O)c1Br [Example 2-382]	100%	90	80%	100							
C=CCSCc1c(C(F)(F)F)ccc(C(=O)Nc2nnnn2C)c1Cl [Example 1-308]	100%					100%	100%	90%	100%		
CSCc1c(C(F)(F)F)ccc(C(=O)Nc2nnnn2C)c1F [Example 1-242]	100%	100		90	80						
CCCn1nnnc1NC(=O)c1ccc(C(F)(F)F)c(C[S+](C)[O-])c1Cl (centres unmarked) [Example 3-297]	100%					80%	80%	80%	100%		
CCCn1nnnc1NC(=O)c1ccc(C(F)(F)F)c(CS(=O)(=O)CC)c1Br [Example 3-385]	100%	100	90%	90							
CCn1nnnc1NC(=O)c1ccc(C(F)(F)F)c(CSC)c1SC [Example 2-161]	100%		80%				90%	80%	100%		
CCCn1nnnc1NC(=O)c1ccc(C(F)(F)F)c(C[S+](C)[O-])c1Br (centres unmarked) [Example 3-381]	100%						90%	90%	90%		
CCn1nnnc1NC(=O)c1ccc(S(C)(=O)=O)c(CS(C)(=O)=O)c1C [Example 2-39]		90		80	80						
CCSCc1c(C(F)F)ccc(C(=O)Nc2nnnn2C)c1SCC [Example 1-191]	100%	100	80%	90							
CSCc1c(C(F)F)ccc(C(=O)Nc2nnnn2C)c1C [Example 1-107, 4-(difluoromethyl)-2-methyl-3-[(methylsulfanyl)methyl]-N-(1-methyl-1H-tetrazol-5-yl)benzamide]	100%	90		90		90%					80
